Results taken from US7208517B1, “Endothelin antagonists” (Abbott Labortories, priority 1994, dated 2007).
Like-named read-outs stand apart in the source and are kept apart here.

How the values were obtained:
[1] = system: ET-1-induced phosphatidylinositol hydrolysis in MMQ cells; test: Determination of ET-1-induced phosphatidylinositol (PI) hydrolysis in MMQ cells; assay type: cell-based, rat; details: 1 nM ET-1 challenge, read-out: IC50 (inhibition of ET-induced increase in PI turnover)
Experimental: MMQ cells (0.4×10^6 cells/mL) were labeled with 10 μCi/mL of [^3H]myo-inositol in RPMI for 16 hours. The cells were washed with PBS, then incubated with Buffer A containing protease inhibitors and 10 mM LiCl for 60 minutes. The cells were then incubated with test compounds for 5 minutes, and then challenged with 1 nM ET-1. ET-1 challenge was terminated by the addition of 1.5 mL of 1:2 (v/v) chloroform-methanol. Total inositol phosphates were extracted after adding chloroform and water to give final proportions of 1:1:0.9 (v/v/v) chloroform-methanol-water as described by Berridge (Biochem. J. 206 587–595 (1982)). The upper aqueous phase (1 mL) was retained and a small portion (100 μL) was counted. The rest of the aqueous sample was analyzed by batch chromatography using anion-exchange resin AG1-X8 (Bio-Rad). […] The results of the above study clearly indicate that the compounds act as functional ET antagonists.

[2] = molecular target: T1, ETA Receptor (Rattus norvegicus, UniProt P26684); test: [125I]ET-1 binding to membranes from MMQ cells (ETA receptor binding assay, Table 4); details: for inhibition at 1 µM: read-out: % Inhibition of ETA at 1 μM
T1 construct: endogenous in cells; host or cells: MMQ rat pituitary cells (membranes)
T1 sequence (P26684 21-426): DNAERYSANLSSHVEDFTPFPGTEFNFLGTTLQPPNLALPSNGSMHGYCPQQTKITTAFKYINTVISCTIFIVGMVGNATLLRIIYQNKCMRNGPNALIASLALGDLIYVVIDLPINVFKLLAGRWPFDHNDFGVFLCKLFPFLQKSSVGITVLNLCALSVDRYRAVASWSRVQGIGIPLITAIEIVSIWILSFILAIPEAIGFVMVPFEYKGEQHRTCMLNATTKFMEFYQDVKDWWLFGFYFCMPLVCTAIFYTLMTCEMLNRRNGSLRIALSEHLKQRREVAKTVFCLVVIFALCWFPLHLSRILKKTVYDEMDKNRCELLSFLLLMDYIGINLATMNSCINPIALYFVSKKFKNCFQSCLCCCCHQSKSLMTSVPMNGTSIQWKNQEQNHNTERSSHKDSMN

[3] = molecular target: T2, ETA receptor in MMQ cells (rET-A) (Rattus norvegicus, UniProt P26684); test: ETA/ETB selectivity: (125I)ET-1 competition binding, ETA assay in MMQ cell membranes (rET-A)
T2 construct: endogenous in cells; host or cells: MMQ rat pituitary cells (membranes)
T2 sequence (P26684 21-426): T1 sequence (P26684 21-426)
Experimental: (§1) The mixture was centrifuged at 1000×g for 10 min. The supernatant was collected and centrifuged at 60,000×g for 60 min. The precipitate was resuspended in 20 mM Tris, pH 7.4 containing protease inhibitor and centrifuged again. The final membrane pellet was resuspended in 20 mM Tris, pH 7.4 containing protease inhibitors and stored at −80° C. until used. Protein content was determined by the Bio-Rad dye-binding protein assay.
(§2) Binding assays were performed in 96-well microtiter plates pretreated with 0.1% BSA. […] After incubation, unbound ligands were separated from bound ligands by a vacuum filtration method using glass-fiber filter strips in PHD cell harvesters (Cambridge Technology, Inc., MA), washing the filter strips three times with saline (1 mL). Nonspecific binding was determined in the presence of 1 μM ET-1. IC50 values are calculated using an average of at least two separate determinations.

[4] = molecular target: T3, human ETB receptor (Homo sapiens, UniProt P24530); test: ETA/ETB selectivity: (125I)ET-3 competition binding, CHO cells transfected with human ETB receptor (hET-B); details: CHO cells transfected with human ETB receptor; 0.1 nM (125I)ET-3; read-out: hET-B IC50
T3 construct: expressed in transfected cells; host or cells: CHO cells, permanently transfected
T3 sequence (P24530 27-442): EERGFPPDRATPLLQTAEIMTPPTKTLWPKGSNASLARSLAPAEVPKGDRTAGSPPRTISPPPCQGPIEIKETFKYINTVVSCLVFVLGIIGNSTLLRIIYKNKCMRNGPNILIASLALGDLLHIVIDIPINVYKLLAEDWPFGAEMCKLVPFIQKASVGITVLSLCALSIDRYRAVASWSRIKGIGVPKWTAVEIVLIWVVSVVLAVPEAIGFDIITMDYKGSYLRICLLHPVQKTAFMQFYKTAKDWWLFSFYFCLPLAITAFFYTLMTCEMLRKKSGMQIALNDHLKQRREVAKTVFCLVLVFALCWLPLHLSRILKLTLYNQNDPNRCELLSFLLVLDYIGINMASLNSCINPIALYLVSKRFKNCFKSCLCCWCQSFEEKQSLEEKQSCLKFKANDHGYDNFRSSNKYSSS
Experimental: MMQ cells, porcine cerebellar tissues (known to contain ETB receptors) and chinese hamster ovary cells (CHO) permanently transfected with the human ETA or ETB receptor were homogenized in 25 ml of 10 mM Hepes (pH 7.4) containing 0.25 M sucrose and a protease inhibitor [50 mM EDTA, 0.1 mM PMSF, 5 μg/ml Pepstatin A, and 0.025% Bacitracin] using a micro ultrasonic cell disrupter. The mixture was centrifuged at 1000×g for 10 min. The supernatant was collected and centrifuged at 60,000×g for 60 min. The precipitate was resuspended in 20 mM Tris, pH 7.4 containing protease inhibitor and centrifuged again. The final membrane pellet was resuspended in 20 mM Tris, pH 7.4 containing protease inhibitors and stored at −80° C. until used. Protein content was determined by the Bio-Rad dye-binding protein assay.
Binding assays were performed in 96-well microtiter plates pretreated with 0.1% BSA. Membranes prepared from cells were diluted 100 fold in Buffer B (20 mM Tris, 100 mM NaCl, 10 mM MgCl2, pH 7.4, with 0.2% BSA, 0.1 mM PMSF, 5 μg/mL Pepstatin A, 0.025% bacitracin, and 50 mM EDTA) to a final concentration of 0.2 mg/mL of protein. In competition binding studies, membranes (0.02 mg) were incubated with 0.1 nM of (^125I)ET-1 (for ETA assay in MMQ or CHO cells transfected with human ETA receptor) or (^125I)ET-3 (for ETB assay in porcine cerebellum or CHO cells transfected with human ETB receptor) in Buffer B (final volume: 0.2 mL) in the presence of increasing concentrations of the test compound for 3 hours at 25° C. After incubation, unbound ligands were separated from bound ligands by a vacuum filtration method using glass-fiber filter strips in PHD cell harvesters (Cambridge Technology, Inc., MA), washing the filter strips three times with saline (1 mL). Nonspecific binding was determined in the presence of 1 μM ET-1. IC50 values are calculated using an average of at least two separate determinations.

[5] = molecular target: T4, human ETA receptor (Homo sapiens, UniProt P25101); test: ETA/ETB selectivity: (125I)ET-1 competition binding, CHO cells transfected with human ETA receptor (hET-A)
T4 construct: expressed in transfected cells; host or cells: CHO cells, permanently transfected
T4 sequence (P25101 21-427): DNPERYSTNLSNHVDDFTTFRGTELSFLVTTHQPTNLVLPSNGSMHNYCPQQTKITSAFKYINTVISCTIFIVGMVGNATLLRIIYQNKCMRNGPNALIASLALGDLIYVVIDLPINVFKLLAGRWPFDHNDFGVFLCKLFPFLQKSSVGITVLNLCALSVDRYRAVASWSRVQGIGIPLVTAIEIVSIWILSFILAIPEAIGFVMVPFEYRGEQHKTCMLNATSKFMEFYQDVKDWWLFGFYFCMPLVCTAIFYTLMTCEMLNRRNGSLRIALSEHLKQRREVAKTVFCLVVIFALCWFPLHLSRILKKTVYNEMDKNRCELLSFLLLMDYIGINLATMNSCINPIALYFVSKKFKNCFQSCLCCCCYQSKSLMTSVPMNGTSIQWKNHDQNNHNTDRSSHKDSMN
Experimental: as §1, §2

[6] = molecular target: T5, ETB receptors of porcine cerebellar tissues (pET-B) (Sus scrofa, UniProt P35463); test: ETA/ETB selectivity: (125I)ET-3 competition binding, ETB assay in porcine cerebellum membranes (pET-B)
T5 construct: porcine cerebellar tissues (known to contain ETB receptors); from tissue; host or cells: porcine cerebellum (membranes)
T5 sequence (P35463 27-443): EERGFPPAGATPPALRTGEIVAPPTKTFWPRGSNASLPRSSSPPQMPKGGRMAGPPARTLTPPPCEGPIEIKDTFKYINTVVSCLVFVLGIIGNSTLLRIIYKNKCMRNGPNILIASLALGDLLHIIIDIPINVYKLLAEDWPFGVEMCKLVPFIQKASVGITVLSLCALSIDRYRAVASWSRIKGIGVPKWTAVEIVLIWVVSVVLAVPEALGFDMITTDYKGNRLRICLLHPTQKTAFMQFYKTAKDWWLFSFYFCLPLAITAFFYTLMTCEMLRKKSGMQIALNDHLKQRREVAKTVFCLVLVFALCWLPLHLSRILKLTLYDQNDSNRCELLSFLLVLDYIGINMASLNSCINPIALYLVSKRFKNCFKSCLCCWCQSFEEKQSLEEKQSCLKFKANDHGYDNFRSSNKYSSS
Experimental: as §1, §2

[7] = test compound at 1 μM, 0.1 nM [125I]ET-1, MMQ cell membranes, 4 hours at 25° C.
[8] = MMQ cell membranes, 0.1 nM (125I)ET-1, read-out: rET-A IC50
[9] = CHO cells transfected with human ETA receptor, 0.1 nM (125I)ET-1, read-out: hET-A IC50

## CCCNC(=O)CN1CC(c2ccc3c(c2)OCO3)C(C(=O)O)C1c1ccc(OC)cc1 (stereo not drawn) [Example 1D, trans,trans-2-(4-Methoxyphenyl)-4-(1,3-benzodioxol-5-yl)-1-(propylaminocarbonylmethyl)-pyrrolidine-3-carboxylic acid]
[1]
  IC50: 25 nM
[2]; [7]
  % Inhibition of ETA at 1 μM: 96.4%

## C=CCNC(=O)CN1CC(c2ccc3c(c2)OCO3)C(C(=O)O)C1c1ccc(OC)cc1 (stereo not drawn) [Example 14, trans,trans-2-(4-Methoxyphenyl)-4-(1,3-benzodioxol-5-yl)-1-(allylaminocarbonylmethyl)-pyrrolidine-3-carboxylic acid]
[1]
  IC50: 17 nM
[2]; [7]
  % Inhibition of ETA at 1 μM: 86.6%

## CCCCNC(=O)CN1CC(c2ccc3c(c2)OCO3)C(C(=O)O)C1c1ccc(OC)cc1 (stereo not drawn) [Example 15, trans,trans-2-(4-Methoxyphenyl)-4-(1,3-benzodioxol-5-yl)-1-(n-butylaminocarbonylmethyl)-pyrrolidine-3-carboxylic acid]
[1]
  IC50: 10 nM
[2]; [7]
  % Inhibition of ETA at 1 μM: 84.8%

## CCCN(C)C(=O)CN1CC(c2ccc3c(c2)OCO3)C(C(=O)O)C1c1ccc(OC)cc1 (stereo not drawn) [Example 16, trans,trans-2-(4-Methoxyphenyl)-4-(1,3-benzodioxol-5-yl)-1-(N-(n-propyl)-N-methylaminocarbonylmethyl)-pyrrolidine-3-carboxylic acid]
[1]
  IC50: 9 nM
[2]; [7]
  % Inhibition of ETA at 1 μM: 96.0%

## COc1ccc(C2C(C(=O)O)C(c3ccc4c(c3)OCO4)CN2CC(=O)NCC(C)C)cc1 (stereo not drawn) [Example 18, trans,trans-2-(4-Methoxyphenyl)-4-(1,3-benzodioxol-5-yl)-1-(isobutylaminocarbonylmethyl)-pyrrolidine-3-carboxylic acid]
[1]
  IC50: 9 nM
[2]; [7]
  % Inhibition of ETA at 1 μM: 97.3%

## COc1ccc(C2C(C(=O)O)C(c3ccc4c(c3)OCO4)CN2CC(=O)NC2CCCC2)cc1 (stereo not drawn) [Example 19, trans,trans-2-(4-Methoxyphenyl)-4-(1,3-benzodioxol-5-yl)-1-(cyclopentylaminocarbonylmethyl)-pyrrolidine-3-carboxylic acid]
[1]
  IC50: 24 nM
[2]; [7]
  % Inhibition of ETA at 1 μM: 90.3%

## CCCCN(C)C(=O)CN1CC(c2ccc3c(c2)OCO3)C(C(=O)O)C1c1ccc(OC)cc1 (stereo not drawn) [Example 30, trans,trans-2-(4-Methoxyphenyl)-4-(1,3-benzodioxol-5-yl)-1-(N-methyl-N-butylaminocarbonylmethyl)-pyrrolidine-3-carboxylic acid]
[1]
  IC50: 1 nM
[2]; [7]
  % Inhibition of ETA at 1 μM: 80.0%

## CCCCN(C)C(=O)CN1CC(c2ccc3c(c2)OCO3)C(C(=O)O)C1c1ccc(OC)cc1OCOC (stereo not drawn) [Example 31B, trans,trans-2-(4-Methoxy-2-methoxymethoxyphenyl)-4-(1,3-benzodioxol-5-yl)-1-(N-methyl-N-butylaminocarbonylmethyl)-pyrrolidine-3-carboxylic acid]
[1]
  IC50: 2 nM
[2]; [7]
  % Inhibition of ETA at 1 μM: 93.6%

## CCCC(CCC)N(C(=O)CN1C[C@H](c2ccc3c(c2)OCO3)[C@@H](C(=O)O)[C@@H]1CC(C)(C)CCC)c1ccc(F)c(C)c1 [compound 511]
[3]; [8]
  IC50: 0.81 nM
[4]
  IC50: 15000 nM
[2]; [7]
  inhibition at 1 µM: 99.2%
[5]; [9]
  IC50: 0.6 nM

## CCCCN(CCCC)C(=O)CN1CC(c2ccc3c(c2)OCO3)C(C(=O)O)C1CCN1CCCC1=O (stereo not shown) [compound 512]
[3]
  IC50: 0.42 nM
[4]
  IC50: ≥ 60000 nM
[2]; [7]
  inhibition at 1 µM: 98.9%
[6]; porcine cerebellum membranes, 0.1 nM (125I)ET-3, read-out: pET-B IC50
  IC50: > 80000 nM
[5]; [9]
  IC50: 0.58 nM

## CCCCN(CCCC)C(=O)CN1CC(c2ccc3c(c2)OCO3)C(C(=O)O)C1CCc1ccccn1 (stereo not shown) [compound 519]
[3]
  IC50: 0.38 nM
[4]
  IC50: 19000 nM
[2]
  inhibition at 1 µM: 99.1%
[6]
  IC50: 14000 nM
[5]; [9]
  IC50: 0.23 nM

## CCCCN(CCCN)C(=O)CN1CC(c2ccc3c(c2)OCO3)C(C(=O)O)C1c1ccc(OC)cc1 (stereo not shown) [compound 526]
[3]; [8]
  IC50: 42 nM
[4]
  IC50: 7400 nM
[2]; [7]
  inhibition at 1 µM: 100%
[5]; [9]
  IC50: 17 nM

## CC=CC(C)(C)CC1C(C(=O)O)C(c2ccc3c(c2)OCO3)CN1CC(=O)N(CCCC)CCCC (stereo not shown) [compound 552]
[3]; 1 μM test compound, MMQ cell membranes
  inhibition at 1 µM: 97.3%
[4]
  IC50: > 96000 nM
[5]
  IC50: 1 nM
